Source: patent US20080019909A1, “Modulation of Programmed Necrosis” (priority 2003, published 2008)
“Also recorded” adds a separate entry of the source.

Tests used:
[1] = test system: TNFR-2+ RIP -/- Jurkat cells (R1.1); assay: TNF cytotoxic assay (cell loss by PI exclusion on FACS), TNFR-2+ RIP -/- cells; assay type: cell-based; details: for TNF-induced death (cell loss): TNFR-2+ RIP -/- cells (R1.1), 10 ng/ml rhTNFα, 16 hours
Text: The results are representative of three experiments.

RIP [2] = assay: Western blot of RIP protein expression in cells treated with GA; assay type: cell-based
[3] = test system: TNFR-2-expressing wild-type (4E3) Jurkat cells
Procedure: Cells were harvested and analyzed by PI exclusion on FACS 16 hours post-stimulation and cell loss was calculated as described in Example 1 (infra).

FADD -/- I42 cells = assay: TNF cytotoxic assay (cell loss by PI exclusion on FACS), FADD -/- I42 cells; assay type: cell-based
Procedure: Cells were stimulated with, TNF or anti-Fas antibody (CH11) for 12 hours and cell loss was analyzed on the GFP+ cells by PI exclusion on FACS.
FIG. 8F is a bar graph depicting the results of experiments in which FADD -/- I42 cells and caspase-8 -/- J3.2 cells (both are TNFR-2+) were stimulated with TNF in the presence or absence of zVAD-fmk for 16 hours.

RIP [4] = assay: Western blot of RIP cleavage in TNF or anti-Fas stimulated wild-type 4E3 cells; assay type: cell-based; details: six hours, C-terminal specific RIP antibody
Procedure: FIG. 4A is a Western blot showing the results of experiments in which wild-type 4E3 cells (WT) and J3.2 cells (Casp-8 -/-) cells Were treated with various combinations of rhTNFα, Apo-1 (anti-Fas), and zVAD-fmk for six hours before whole cell lysates were harvested.

caspase-8 -/- J3.2 cells = assay: TNF cytotoxic assay (cell loss by PI exclusion on FACS), caspase-8 -/- J3.2 cells

With `COC1=C2C[C@@H](C)C[C@H](OC)[C@H](O)[C@@H](C)/C=C(\C)[C@H](OC(N)=O)[C@@H](OC)/C=C\C=C(/C)C(=O)NC(=CC1=O)C2=O` [geldanamycin] the “TNF-induced death (cell loss)” value ([1]; or 0.5 mM GA) was “no effect”, the “reduction in RIP protein level” value (RIP [2]) was greater than 90% and the “cell viability, compound alone” value [3] was “no effect”.

“z-Val-Ala-Asp-fluoromethyl ketone [zVAD-fmk]” was tested, and the “TNF-induced programmed necrosis (cell loss)” value (FADD -/- I42 cells; FADD -/- I42 cells, TNF 16 hours, zVAD-fmk or GA) was “failed to provide any protection; also recorded: not blocked”, the “TNF-induced death (cell loss)” value ([1]; 50 mM zVAD-fmk or 0.5 mM GA) was “completely inhibited” and the “TNF killing restored by K45A or RIPc, in the presence of zVAD-fmk” value ([1]; TNFR-2+ RIP -/- cells reconstituted with kinase inactive (K45A) RIP or RIPc) was “potently inhibited”. For the same molecule, the RIP cleavage (RIP [4]) was “potently inhibited”, the “cell viability, compound alone” value [3] was “no effect” and the “TNF-induced death (cell loss), zVAD-fmk plus GA together” value ([3]; wild-type 4E3 cells, 10 ng/ml rhTNFα with zVAD-fmk plus GA, 16 hours) was “synergized to completely suppress”. The “TNF-induced death (cell loss), single agent” value ([3]; wild-type 4E3 cells, 10 ng/ml rhTNFα, 16 hours, or 0.5 mM GA) was “partial protective effect” and the “TNF-induced programmed necrosis (cell loss)” value (caspase-8 -/- J3.2 cells; caspase-8 -/- J3.2 cells, rhTNF 15-16 hours, zVAD-fmk or 0.5 mM GA pretreatment) was “failed to provide any protection; also recorded: not blocked”.

B1: full-length FADD: full-length FADD transiently transfected into FADD -/- cells (protein, UniProt Q13158 1-208, looked up)
chain: MDPFLVLLHSVSSSLSSSELTELKFLCLGRVGKRKLERVQSGLDLFSMLLEQNDLEPGHTELLRELLASLRRHDLLRRVDDFEAGAAAGAAPGEEDLCAAFNVICDNVGKDWRRLARQLKVSDTKIDSIEDRYPRNLTERVRESLRIWKNTEKENATVAHLVGALRSCQMNLVADLVQEVQQARDLQNRSGAMSPMSWNSDASTSEAS
modifications: full-length
notes: full-length FADD transiently transfected into FADD -/- cells
With B1 the “TNF-induced programmed necrosis after reconstitution of FADD” value (FADD -/- I42 cells; FADD -/- cells (I42) transiently transfected, TNF 12 hours, GFP+ cells) was “suppression”.

B2: kinase-inactive RIP: kinase inactive version of RIP (K45A mutation), expressed from transfected plasmid (protein, UniProt Q13546 1-671, looked up, variant K45A)
Receptor-interacting …: MQPDMSLNVIKMKSSDFLESAELDSGGFGKVSLCFHRTQGLMIMATVYKGPNCIEHNEALLEEAKMMNRLRHSRVVKLLGVIIEEGKYSLVMEYMEKGNLMHVLKAEMSTPLSVKGRIILEIIEGMCYLHGKGVIHKDLKPENILVDNDFHIKIADLGLASFKMWSKLNNEEHNELREVDGTAKKNGGTLYYMAPEHLNDVNAKPTEKSDVYSFAVVLWAIFANKEPYENAICEQQLIMCIKSGNRPDVDDITEYCPREIISLMKLCWEANPEARPTFPGIEEKFRPFYLSQLEESVEEDVKSLKKEYSNENAVVKRMQSLQLDCVAVPSSRSNSATEQPGSLHSSQGLGMGPVEESWFAPSLEHPQEENEPSLQSKLQDEANYHLYGSRMDRQTKQQPRQNVAYNREEERRRRVSHDPFAQQRPYENFQNTEGKGTAYSSAASHGNAVHQPSGLTSQPQVLYQNNGLYSSHGFGTRPLDPGTAGPRVWYRPIPSHMPSLHNIPVPETNYLGNTPTMPFSSLPPTDESIKYTIYNSTGIQIGAYNYMEIGGTSSSLLDSTNTNFKEEPAAKYQAIFDNTTSLTDKHLDPIRENLGKHWKNCARKLGFTQSQIDEIDHDYERDGLKEKVYQMLQKWVMREGIKGATVGKLAQALHQCSRIDLLSSLIYVSQN
In the case of B2, the “restoration of response to TNF (TNF killing) by transfected RIP constructs” value ([1]; TNFR-2+ RIP -/- cells reconstituted with RIP mutants, stimulated with TNF) is reported as “restored” and the “TNF-induced programmed necrosis, transfected kinase-inactive constructs” value (caspase-8 -/- J3.2 cells; caspase-8 -/- J3.2 cells co-transfected with pEGFP-N1, 10 ng/ml rhTNFα, 16 hours, GFP positive cells) is reported as “strongly suppressed”.
